Values quoted from earlier work in patent US6559178B1 (priority 2002, dated 2003).

Test system: cancer
Settings: Phase II testing

## CC(=O)OC[C@]12CCC(C)=C[C@H]1O[C@@H]1[C@H](O)[C@@H](OC(C)=O)[C@@]2(C)[C@]12CO2 [Anguidine]
  hematologic toxicity: considerable hematologic toxicity
  tumor response: low tumor response
